The test system of the experiment is Cladosporium cucumerinum. In words: Mycelial growth test. The settings on record: Cladosporium cucumerinum, CC, read-out: Percent Fungus Growth Inhibition; for inhibition at 5 ppm / inhibition at 10 ppm / inhibition at 40 ppm: 72 h; for inhibition at 20 ppm: CC20, 72 h. Type of experiment: cell-based. The text has this: |CC = Cladosporium cucumerinum

What is called inhibition is how much of the control response was suppressed. Take `O=c1c(Cl)nsnc1Oc1ccccc1Br` [Compound 34, 3-chloro-5-(2-bromophenoxy)-4H-1,2,6,-thiadiazin-4-one]: the inhibition at 5 ppm was 6%, the inhibition at 10 ppm was 28%, the inhibition at 40 ppm stood at 86% and the inhibition at 20 ppm was determined as 61%.

With `O=c1c(Cl)nsnc1Oc1ccc(O)cc1` [Compound 35, 3-chloro-5-(4-hydroxyphenoxy)-4H-1,2,6-thiadiazin-4-one], the inhibition at 5 ppm came out at 0%, the inhibition at 10 ppm worked out at 0%, the inhibition at 40 ppm is 92% and the inhibition at 20 ppm was 23%.

As to `O=C(Nc1ccccc1)Oc1ccc(Oc2nsnc(Cl)c2=O)cc1` [Compound 37, 3-chloro-5-[4-(phenylaminocarbonyloxy)phenoxy]-4H-1,2,6,-thiadiazin-4-one], the inhibition at 5 ppm stood at 23%, the inhibition at 10 ppm is 29%, the inhibition at 40 ppm worked out at 52% and the inhibition at 20 ppm came out at 35%.

For `O=C(OCc1ccccc1)Oc1ccc(Oc2nsnc(Cl)c2=O)cc1` [Compound 38, 3-chloro-5-[4-(phenylmethoxycarbonyloxy)phenoxyl]-4H-1,2,6-thiadiazin-4-one], the inhibition at 5 ppm worked out at 0%, the inhibition at 10 ppm stood at 0%, the inhibition at 40 ppm worked out at 26% and the inhibition at 20 ppm was 0%.

Take `CSc1ccc(Oc2nsnc(Cl)c2=O)cc1` [Compound 39, 3-chloro-5-[(4-methylthio)phenoxy]-4H-1,2,6,-thiadiazin-4-one]: the inhibition at 5 ppm worked out at 16%, the inhibition at 10 ppm was 16%, the inhibition at 40 ppm was determined as 32% and the inhibition at 20 ppm came to 23%.

Turning to `C[S+]([O-])c1ccc(Oc2nsnc(Cl)c2=O)cc1` (stereo not drawn) [Compound 40, 3-chloro-5-[(4-methylsulfinyl)phenoxy]-4H-1,2,6,-thiadiazin-4-one], the inhibition at 5 ppm was 0%, the inhibition at 10 ppm came out at 48%, the inhibition at 40 ppm is 48% and the inhibition at 20 ppm was 32%.

`CS(=O)(=O)c1ccc(Oc2nsnc(Cl)c2=O)cc1` [Compound 41, 3-chloro-5-[(4-methylsulfonyl)phenoxy]-4H--1,2,6-thiadiazin-4-one]: the inhibition at 5 ppm was 10%, the inhibition at 10 ppm is 32%, the inhibition at 40 ppm was 65% and the inhibition at 20 ppm was determined as 48%.

On to `CC(=O)Nc1cccc(Oc2nsnc(Cl)c2=O)c1` [Compound 42, 3-[(3-N--acetylamino)-phenoxy]-5-chloro-4H--1,2,6-thiadiazin-4-one], for which the inhibition at 5 ppm came to 14%, the inhibition at 10 ppm was 22%, the inhibition at 40 ppm worked out at 18% and the inhibition at 20 ppm stood at 14%.

With `CC(=O)Nc1ccccc1Oc1nsnc(Cl)c1=O` [Compound 43, 3-[(2-acetylamino)-phenoxy]-5-chloro-4H--1,2,6-thiadiazin-4-one], the inhibition at 5 ppm was found to be 0%, the inhibition at 10 ppm is 0%, the inhibition at 40 ppm amounted to 17% and the inhibition at 20 ppm was determined as 6%.

For the molecule `O=c1c(Cl)nsnc1Oc1cccc(C(F)(F)F)c1` [Compound 44, 3-chloro-5-[(3-trifluoromethyl)phenoxy]-4H--1,2,6-thiadiazin-4-one], the inhibition at 5 ppm worked out at 36%, the inhibition at 10 ppm worked out at 56%, the inhibition at 40 ppm is 100% and the inhibition at 20 ppm was 92%.

Regarding `O=C(O)Cc1ccccc1Oc1nsnc(Cl)c1=O` [Compound 45, 3-(2-carboxymethylphenoxy)-5-chloro-4H--1,2,6-thiadiazin-4-one], the inhibition at 5 ppm was found to be 0%, the inhibition at 10 ppm was determined as 0%, the inhibition at 40 ppm amounted to 0% and the inhibition at 20 ppm amounted to 12%.

In the case of `N#CCc1ccc(Oc2nsnc(Cl)c2=O)cc1` [Compound 46, 3-chloro-5-[(4-cyanomethyl)-phenoxy]4H--1,2,6-thiadiazin-4-one], the inhibition at 5 ppm stood at 0%, the inhibition at 10 ppm amounted to 0%, the inhibition at 40 ppm is 100% and the inhibition at 20 ppm came out at 46%.

As to `CC(=O)c1ccc(Oc2nsnc(Cl)c2=O)cc1` [Compound 47, 3-(4-acetylphenoxy)-5-chloro-4H--1,2,6-thiadiazin-4-one], the inhibition at 5 ppm is 27%, the inhibition at 10 ppm was determined as 38%, the inhibition at 40 ppm was determined as 77% and the inhibition at 20 ppm came out at 46%.

For `CC(=O)c1cccc(Oc2nsnc(Cl)c2=O)c1` [Compound 48, 3-(3-acetylphenoxy)-5-chloro-4H--1,2,6-thiadiazin-4-one], the inhibition at 5 ppm amounted to 29%, the inhibition at 10 ppm was 33%, the inhibition at 40 ppm was determined as 100% and the inhibition at 20 ppm is 50%.

Take `CC(=O)c1ccccc1Oc1nsnc(Cl)c1=O` [Compound 49, 3-(2-acetylphenoxy)-5-chloro-4H--1,2,6-thiadiazin-4-one]: the inhibition at 5 ppm came to 3%, the inhibition at 10 ppm was determined as 17%, the inhibition at 40 ppm came to 64% and the inhibition at 20 ppm stood at 33%.

`O=C(O)c1ccc(Oc2nsnc(Cl)c2=O)cc1` [Compound 50, 3-(4-carboxyphenoxy)-5-chloro-4H--1,2,6-thiadiazin-4-one]: the inhibition at 5 ppm came out at 58%, the inhibition at 10 ppm worked out at 54%, the inhibition at 40 ppm was 100% and the inhibition at 20 ppm was found to be 73%.

For the molecule `COc1ccc(Cl)c(Oc2nsnc(Cl)c2=O)c1` [Compound 51, 3-chloro-5-[(2-chloro-5-methoxy)phenoxy]-4H--1,2,6-thiadiazin-4-one], the inhibition at 5 ppm amounted to 8%, the inhibition at 10 ppm is 26%, the inhibition at 40 ppm was 100% and the inhibition at 20 ppm worked out at 85%.

As for `COc1cc(Cl)cc(Oc2nsnc(Cl)c2=O)c1` [Compound 52, 3-chloro-5-[(3-chloro-5-methoxy)phenoxy]-4H--1,2,6-thiadiazin-4-one], the inhibition at 5 ppm stood at 15%, the inhibition at 10 ppm amounted to 46%, the inhibition at 40 ppm stood at 77% and the inhibition at 20 ppm came to 88%.

In the case of `O=c1c(Cl)nsnc1Oc1ccc([N+](=O)[O-])cc1Cl` [Compound 53, 3-chloro-5-(2-chloro-4-nitrophenoxy)-4H--1,2,6-thiadiazin-4-one], the inhibition at 5 ppm turned out to be 45%, the inhibition at 10 ppm is 61%, the inhibition at 40 ppm came to 65% and the inhibition at 20 ppm amounted to 71%.

As for `Cc1cc(Oc2nsnc(Cl)c2=O)ccc1Cl` [Compound 54, 3-chloro-5-(4-chloro-3-methylphenoxy)-4H--1,2,6-thiadiazin-4-one], the inhibition at 5 ppm came out at 14%, the inhibition at 10 ppm is 28%, the inhibition at 40 ppm is 50% and the inhibition at 20 ppm came to 33%.

Turning to `Cc1cc(Cl)ccc1Oc1nsnc(Cl)c1=O` [Compound 55, 3-chloro-5-(4-chloro-2-methylphenoxy)-4H--1,2,6-thiadiazin-4-one], the inhibition at 5 ppm worked out at 0%, the inhibition at 10 ppm came out at 11%, the inhibition at 40 ppm came out at 28% and the inhibition at 20 ppm was determined as 22%.

In the case of `Cc1ccc(Cl)c(Oc2nsnc(Cl)c2=O)c1` [Compound 56, 3-chloro-5-[(2-chloro-5-methyl)phenoxy]-4H--1,2,6-thiadiazin-4-one], the inhibition at 5 ppm turned out to be 26%, the inhibition at 10 ppm came to 38%, the inhibition at 40 ppm was 100% and the inhibition at 20 ppm was found to be 100%.

For the molecule `Cc1ccc(Oc2nsnc(Cl)c2=O)c(Br)c1` [Compound 57, 3-[(2-bromo-4-methyl)-phenoxy]-5-chloro-4H--1,2,6-thiadiazin-4-one], the inhibition at 5 ppm came to 42%, the inhibition at 10 ppm was determined as 56%, the inhibition at 40 ppm is 78% and the inhibition at 20 ppm came to 78%.

As to `Cc1cc(Cl)c(Oc2nsnc(Cl)c2=O)cc1C` [Compound 58, 3-chloro-5-[(2-chloro-4,5-dimethyl)phenoxy]-4H--1,2,6-thiadiazin-4-one], the inhibition at 5 ppm turned out to be 44%, the inhibition at 10 ppm worked out at 44%, the inhibition at 40 ppm worked out at 61% and the inhibition at 20 ppm stood at 42%.

With `Cc1cc(Oc2nsnc(Cl)c2=O)cc(C)c1Cl` [Compound 59, 3-chloro-5-[(4-chloro-3,5-dimethyl)phenoxy]-4H--1,2,6-thiadiazin-4-one], the inhibition at 5 ppm was 28%, the inhibition at 10 ppm turned out to be 42%, the inhibition at 40 ppm stood at 61% and the inhibition at 20 ppm amounted to 47%.

As for `Cc1cc(Oc2nsnc(Cl)c2=O)cc(C)c1Br` [Compound 60, 3-[(4-bromo-3,5-dimethyl)-phenoxy]-5-chloro-4H--1,2,6-thiadiazin-4-one], the inhibition at 5 ppm worked out at 33%, the inhibition at 10 ppm was determined as 36%, the inhibition at 40 ppm turned out to be 47% and the inhibition at 20 ppm was found to be 44%.

As to `COc1cc(Oc2nsnc(Cl)c2=O)cc(OC)c1C(C)=O` [Compound 61, 3-[(4-acetyl-3,5-dimethoxy)-phenoxy]-5-chloro-4H--1,2,6-thiadiazin-4-one], the inhibition at 5 ppm turned out to be 6%, the inhibition at 10 ppm was found to be 23%, the inhibition at 40 ppm is 52% and the inhibition at 20 ppm was 32%.

Source of the values: patent publication US4450269A, “Mono-5-substituted-3-chloro-4H-1,2,6-thiadiazin-4-one antifungal agents” (FMC Corporation, priority 1980, dated 1984).
